Measurements taken from patent US4394382A, “Dihydrobenzopyran compounds and pharmaceutical composition comprising said compounds” (Kowa Company, Ltd., priority 1980, dated 1983).
Where a name gives a salt, the structure may show the parent alone.

What was measured:
[1] = urine and electrolyte excretion, oral water load method; assay type: in vivo; details: rat, over 5 hours; for Amount of urine: average ± standard deviation
Procedure: Using rats, five per group, the amount of urine and the amount of electrolytes (sodium, potassium) excreted were measured over 5 hours after oral administration of each of the drugs by an oral water load method. Each of the test drugs was suspended in a 0.5% carboxymethyl cellulose solution and orally administered. Each of the numerical values given in the table is an average value ± standard deviation.

[2] = tested on: various isolated smooth muscles; assay: activities on various isolated smooth muscles, overall (Magnus method)
Procedure: (§1) The activities of the compounds Ia and Ib on various isolated smooth muscles were examined by the Magnus method. Each of the test drugs was used in a concentration of 10^-9 to 4×10^-4 mole/1000 ml (M).

isoproterenol, bronchus = target: T1, isoproterenol, bronchus (Cavia porcellus, UniProt Q8K4Z4); assay: isolated bronchus sample, antagonistic action on isoproterenol (Magnus method); details: guinea pig bronchus, vs isoproterenol, reciprocal logarithm of molar concentration
T1 construct: Using the bronchus of a guinea pig; from tissue; host or cells: guinea pig bronchus
T1 sequence (Q8K4Z4 whole entry): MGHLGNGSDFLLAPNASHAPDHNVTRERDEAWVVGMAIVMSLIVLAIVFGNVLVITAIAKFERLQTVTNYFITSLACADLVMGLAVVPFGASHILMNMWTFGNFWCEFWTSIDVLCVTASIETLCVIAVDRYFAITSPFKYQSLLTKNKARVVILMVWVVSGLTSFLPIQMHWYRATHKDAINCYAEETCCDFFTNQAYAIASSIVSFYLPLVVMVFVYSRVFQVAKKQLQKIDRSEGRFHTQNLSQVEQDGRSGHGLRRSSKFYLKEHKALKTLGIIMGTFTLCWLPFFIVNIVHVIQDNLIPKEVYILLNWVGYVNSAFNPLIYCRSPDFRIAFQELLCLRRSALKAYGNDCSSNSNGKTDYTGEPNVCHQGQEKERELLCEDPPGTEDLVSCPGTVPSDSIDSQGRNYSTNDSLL
Procedure: (§2) Each of the test drugs was used in a concentration of 10^-9 to 4×10^-4 mole/1000 ml (M).
(2) Isolated bronchus sample
Using the bronchus of a guinea pig, the antagonistic action of the test drugs on isoproterenol was examined.

[3] = tested on: potassium contracture, portal vein; assay: isolated portal vein, action on potassium contracture (Magnus method); details: dog portal vein, 50% inhibition of maximum reaction, reciprocal logarithm of molar concentration
Procedure: as §1
Using an isolated portal vein of a dog, the action of the test drugs on potassium contracture was examined.

[4] = target: T2, isoproterenol, atrium dextrum and atrium sinistrum (Cavia porcellus, UniProt H0W3H1); assay: isolated atrium cordis samples, antagonistic action on isoproterenol (Magnus method); details: guinea pig atrium, vs isoproterenol; reciprocal logarithm of molar concentration
T2 construct: Using the atrium dextrum and atrium sinistrum of a guinea pig; from tissue; host or cells: guinea pig right and left atria
T2 sequence (H0W3H1 1-470): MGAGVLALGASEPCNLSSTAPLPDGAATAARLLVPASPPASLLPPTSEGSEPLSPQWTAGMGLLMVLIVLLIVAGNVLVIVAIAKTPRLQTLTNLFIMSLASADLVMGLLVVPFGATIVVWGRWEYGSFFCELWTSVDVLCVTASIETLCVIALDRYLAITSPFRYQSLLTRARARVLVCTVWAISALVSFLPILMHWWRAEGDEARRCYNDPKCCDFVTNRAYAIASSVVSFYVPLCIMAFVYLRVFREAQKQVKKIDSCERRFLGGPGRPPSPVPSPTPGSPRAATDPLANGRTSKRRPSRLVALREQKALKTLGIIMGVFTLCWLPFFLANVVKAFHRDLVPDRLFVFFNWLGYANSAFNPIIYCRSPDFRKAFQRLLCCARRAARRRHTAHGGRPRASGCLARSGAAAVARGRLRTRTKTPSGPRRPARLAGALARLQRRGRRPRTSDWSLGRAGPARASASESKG
Procedure: as §2
(1) Isolated atrium cordis samples
Using the atrium dextrum and atrium sinistrum of a guinea pig, the contractile force and rhythem were recorded, and the antagonistic action of the test drugs on isoproterenol was examined.

[5] = tested on: potassium contracture, saphenous vein; assay: isolated saphenous vein, action on potassium contracture (Magnus method); details: dog saphenous vein, 50% inhibition of maximum reaction, reciprocal logarithm of molar concentration
Procedure: as §1
(5) Isolated saphenous vein
Using an isolated saphenous vein of a dog, the action of the test drugs on potassium contracture was examined.

[6] = tested on: norepinephirine, mesenteric artery; assay: isolated mesenteric artery, antagonistic action on norepinephrine (Magnus method); details: dog mesenteric artery, vs norepinephrine; reciprocal logarithm of molar concentration
Procedure: as §1
(§3) (6) Isolated mesenteric artery
(§4) Using an isolated mesenteric artery of a dog, the antagonistic action of the test drugs on (a) potassium contracture and (b) norepinephirine was examined.

[7] = tested on: potassium contracture, left circumflex branch (coronary artery); assay: isolated coronary artery, action on potassium contracture (Magnus method); details: dog coronary artery, 50% inhibition of maximum reaction, reciprocal logarithm of molar concentration
Procedure: Each of the test drugs was used in a concentration of 10^-9 to 4×10^-4 mole/1000 ml (M). (3) Isolated coronary artery Using the left circumflex branch of a dog, the action of the test drugs on potassium contracture was examined.

[8] = tested on: Femoral blood flow (femoral artery); assay: femoral blood flow in anesthetized dogs; assay type: in vivo, dog; details: 1 to 300 μg/kg, *: an increase of about 10% as low doses, and a decrease of about 20% at high doses
Procedure: Adult dogs were anesthetized with 30 mg/kg of pentobarbital administered intravenously and ventilated artificially. The effect of the compounds Ia and Ib on hemodynamic parameters was investigated. Drugs were used dissolved in 0.1 N hydrochloric acid and administered over the 1 to 300 μg/kg dose range.
Measured with an electromagnetic flowmeter probe placed on the femoral artery.

[9] = tested on: potassium contracture, mesenteric artery; assay: isolated mesenteric artery, antagonistic action on potassium contracture (Magnus method); details: dog mesenteric artery, 50% inhibition of maximum reaction, reciprocal logarithm of molar concentration
Procedure: as §1, §3, §4

[10] = 30 mg/kg, controls 22.5 ± 1.4 and (second set) 19.4 ± 4.0
[11] = 30 mg/kg, controls 0.18 ± 0.04 and (second set) 0.21 ± 0.08
[12] = 30 mg/kg, controls 0.53 ± 0.15 and (second set) 0.55 ± 0.14
[13] = 30 mg/kg, controls 3.08 ± 0.27 and (second set) 2.76 ± 0.83

SMILES | Amount of urine [1, 10] [mL/kg] | K/Na [1, 11] | K excreted [1, 12] [mEq/kg] | Na excreted [1, 13] [mEq/kg] | (4) pD'2 [3] | (1) pA2 [4] | (5) pD'2 [5] | (6) (b) pA2 [6] | (3) pD'2 [7] | (8) Femoral blood flow* [8] | (6) (a) pD'2 [9] | further results
CC(C)NCC(O)COc1cccc2ccccc12 (centres unmarked) [Comparative drug I, propranolol hydrochloride, reference compound] | 27.8 ± 3.7 | 0.21 ± 0.04 | 0.70 ± 0.11 | 3.42 ± 0.28 |  |  |  |  |  |  |  | 
NS(=O)(=O)c1cc2c(cc1Cl)NC(C(Cl)Cl)NS2(=O)=O (centres unmarked) [Comparative drug II, trichlormethiazide, reference compound] | 34.8 ± 1.7 | 0.21 ± 0.04 | 1.12 ± 0.18 | 5.36 ± 0.42 |  |  |  |  |  |  |  | 
CC(C)NCC(O)COc1cccc2c1OCC(O[N+](=O)[O-])C2 (centres unmarked) [Compound Ia, 3,4-dihydro-8-[(2-hydroxy-3-isopropylamino)propoxy]-3-nitrato-2H-benzopyran] | 31.1 ± 3.2 | 0.20 ± 0.05 | 0.91 ± 0.23 | 4.18 ± 0.56 | 6.3-6.4 | 9.1 | 5.8-6.0 | 7.0-7.1 | 6.2-6.3 | +~- | 5.2-5.3 | β- and α-blocking activities [2]: strong β- and α-blocking activities; (2) pA2 (isoproterenol, bronchus): 9.1-9.2; Amount of urine ([1]; 10 mg/kg, control 22.5 ± 1.4): 24.2 ± 2.2 mL/kg; K excreted ([1]; 10 mg/kg, control 0.53 ± 0.15): 0.61 ± 0.20 mEq/kg; Na excreted ([1]; 10 mg/kg, control 3.08 ± 0.27): 3.25 ± 0.18 mEq/kg; Amount of urine ([1]; 100 mg/kg, control 19.4 ± 4.0): 34.0 ± 3.7 mL/kg; K/Na ([1]; 100 mg/kg, control 0.21 ± 0.08): 0.30 ± 0.10; K excreted ([1]; 100 mg/kg, control 0.55 ± 0.14): 0.14 ± 0.45 mEq/kg; Na excreted ([1]; 100 mg/kg, control 2.76 ± 0.83): 3.69 ± 0.33 mEq/kg; K/Na ([1]; control 0.18 ± 0.04): 0.19 ± 0.07
CC(C)NCC(O)COc1cccc2c1OCC(CO[N+](=O)[O-])C2 (centres unmarked) [Compound Ib, 3,4-dihydro-8-[(2-hydroxy-3-isopropylamino)propoxy]-3-nitratomethyl-2H-benzopyran] | 32.6 ± 4.5 | 0.21 ± 0.08 | 0.83 ± 0.36 | 3.87 ± 0.64 | 6.2 | 7.83 | 6.2 | 6.4 | 5.7 | +~- | 5.6 | Kb (isoproterenol, bronchus; read-out: (2) pA2 (converted)): 5.13 nM
